{"source": "patent US9453253B2", "about": "“Methods of using isotopically labelled isoniazid for the diagnosis of mycobacterial infections” (priority 2012, dated 2016)", "key": {"[1]": {"test_system": "M. bovis BCG", "format": "cell-based"}, "[2]": {"test_system": "Mycobacterium tuberculosis H37Rv", "format": "cell-based", "settings": "M. tuberculosis H37Rv, 1 mg/mL, 1 hour, head gas, control subtracted"}}}
{"smiles": "[15NH2][15NH]C(=O)c1ccncc1", "note": "[^15N2-hydrazyl-INH]", "values": [{"measurement": "30/28 mass signal in nitrogen gas, dependency on CFU", "setting": "[1]", "result": "proportional to CFU/mL"}, {"measurement": "30/28 mass signal in nitrogen gas, dose dependence", "setting": "[1]", "result": "dependent upon dose"}, {"measurement": "30/28 mass signal in nitrogen gas, time dependence", "setting": "[1]", "result": "increase in the signal over the course of an hour, which then begins to decrease by 4 hours"}, {"measurement": "30/28 mass signal in nitrogen gas, dependency on CFU", "setting": "[2]", "result": "proportional to CFU/mL"}]}
